Measured values reported in patent US6680323B2, “Dihydropyrimidines and uses thereof” (Synaptic Pharmaceutical Corporation, priority 1998, dated 2004).
Structures can show the parent of a compound that is named as a salt.

Legend:
human α2a receptor = target: T1, human α2a receptor (Homo sapiens, UniProt P08913); assay: Competition binding ([3H]rauwolscine) at cloned human α2a receptor; details: transfected LM(tk−) cells, [3H]rauwolscine 0.5 nM; read-out: Binding affinity hα2a
T1 construct: expressed in transfected cells
T1 sequence (P08913 1-465): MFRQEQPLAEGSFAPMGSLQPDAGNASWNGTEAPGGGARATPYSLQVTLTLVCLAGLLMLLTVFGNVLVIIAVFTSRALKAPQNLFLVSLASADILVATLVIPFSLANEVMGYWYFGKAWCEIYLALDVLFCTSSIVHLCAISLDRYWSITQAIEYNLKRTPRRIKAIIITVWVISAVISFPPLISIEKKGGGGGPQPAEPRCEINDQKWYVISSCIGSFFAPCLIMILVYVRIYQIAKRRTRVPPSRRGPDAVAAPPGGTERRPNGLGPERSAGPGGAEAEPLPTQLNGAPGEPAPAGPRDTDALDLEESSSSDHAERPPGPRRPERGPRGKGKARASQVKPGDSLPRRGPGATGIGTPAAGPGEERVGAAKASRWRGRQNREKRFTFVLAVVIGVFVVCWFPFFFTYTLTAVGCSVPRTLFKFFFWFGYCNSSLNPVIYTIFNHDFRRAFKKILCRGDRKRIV
Excerpt: α2 Human Adrenergic Receptors
To determine the potency of α1 antagonists at the α2 receptors, LM(tk−) cell lines stably transfected with the genes encoding the α2a, α2b, and α2c receptors were used. The cell line expressing the α2a receptor is designated L-α2A, and was deposited on Nov. 6, 1992 under ATCC Accession No. CRL 11180. The cell line expressing the α2b receptor is designated L-NGC-α2B, and was deposited on Oct. 25, 1989 under ATCC Accession No. CRL10275. The cell line expressing the α2c receptor is designated L-α2C, and was deposited on Nov. 6, 1992 under ATCC Accession No. CRL-11181. All the cell lines were deposited with the American Type Culture Collection, 12301 Parklawn Drive, Rockville, Md. 20852, U.S.A. under the provisions of the Budapest Treaty for the International Recognition of the Deposit of Microorganisms for the Purposes of Patent Procedure. Cell lysates were prepared as described above (see Radioligand Binding Assays), and suspended in 25 mM glycylglycine buffer (pH 7.6 at room temperature). Equilibrium competition binding assay were performed using [3H]rauwolscine (0.5 nM), and nonspecific binding was determined by incubation with 10 μM phentolamine. The bound radioligand was separated by filtration through GF/B filters using a cell harvester.

human α1d receptor = target: T2, human α1d receptor (Homo sapiens, UniProt P25100); assay: Radioligand binding ([3H]prazosin) at cloned human α1d receptor; details: second column headed hα1a (c3); membranes of transfected LM(tk−) cells, [3H]prazosin 0.5 nM; read-out: Binding affinity hα1a
T2 construct: expressed in transfected cells
T2 sequence (P25100 1-572): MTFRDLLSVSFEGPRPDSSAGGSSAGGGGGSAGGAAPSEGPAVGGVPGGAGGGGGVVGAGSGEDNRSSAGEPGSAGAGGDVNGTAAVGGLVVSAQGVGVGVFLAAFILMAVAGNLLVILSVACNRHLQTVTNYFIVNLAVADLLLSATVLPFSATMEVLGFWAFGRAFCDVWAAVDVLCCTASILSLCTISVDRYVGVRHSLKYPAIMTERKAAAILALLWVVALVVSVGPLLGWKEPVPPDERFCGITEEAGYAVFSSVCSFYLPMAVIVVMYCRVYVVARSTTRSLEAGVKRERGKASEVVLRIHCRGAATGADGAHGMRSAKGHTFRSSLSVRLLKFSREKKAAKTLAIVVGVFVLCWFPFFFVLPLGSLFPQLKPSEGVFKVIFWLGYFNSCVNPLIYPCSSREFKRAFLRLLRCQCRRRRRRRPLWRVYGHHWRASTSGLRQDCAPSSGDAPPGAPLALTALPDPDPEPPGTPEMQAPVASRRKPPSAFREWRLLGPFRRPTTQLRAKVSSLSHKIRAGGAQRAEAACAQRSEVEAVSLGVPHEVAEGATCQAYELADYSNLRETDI
Protocol: The activity of compounds at the different human receptors was determined in vitro using cultured cell lines that selectively express the receptor of interest. These cell lines were prepared by transfecting the cloned cDNA or cloned genomic DNA or constructs containing both genomic DNA and cDNA encoding the human α-adrenergic receptors as follows:
α1d Human Adrenergic Receptor
The entire coding region of α1d (1719 bp), including 150 base pairs of 5′ untranslated sequence (5′ UT) and 300 bp of 3′ untranslated sequence (3′ UT), was cloned into the BamHI and ClaI sites of the polylinker-modified eukaryotic expression vector pCEXV-3, called EXJ.HR. The construct involved the ligation of partial overlapping human lymphocyte genomic and hippocampal cDNA clones: 5′ sequence were contained on a 1.2 kb SmaI-XhoI genomic fragment (the vector-derived BamHI site was used for subcloning instead of the internal ninsert-derived SmaI site) and 3′ sequences were contained on an 1.3 kb XhoI-ClaI cDNA fragment (the ClaI site was from the vector polylinker). Stable cell lines were obtained by cotransfection with the plasmid α1A/EXJ (expression vector containing the α1a receptor gene (old nomenclature)) and the plasmid pGCcos3neo (plasmid containing the aminoglycoside transferase gene) into LM(tk−) cells using calcium phosphate technique. The cells were grown, in a controlled environment (37° C., 5% CO2), as monolayers in Dulbecco's modified Eagle's Medium (GIBCO, Grand Island, N.Y.) containing 25 mM glucose and supplemented with 10% bovine calf serum, 100 units/ml penicillin g, and 100 μg/ml streptomycin sulfate. Stable clones were then selected for resistance to the antibiotic G-418 (1 mg/ml), and membranes were harvested and assayed for their ability to bind [^3H]prazosin as described below (see “Radioligand Binding assays”).
The cell line expressing the human α1d receptor used herein was designated L-α1A (old nomenclature) and was deposited with the American Type Culture Collection, 12301 Parklawn Drive, Rockville, Md. 20852, U.S.A. under the provisions of the Budapest Treaty for the International Recognition of the Deposit of Microorganisms for the Purposes of Patent Procedure. The cell line expressing the human α1d receptor, was accorded ATCC Accession No. CRL 11138, and was deposited on Sep. 25, 1992.
Radioligand Binding Assays for α1 Receptors
Transfected cells from culture flasks were scraped into 5 ml of 5 mM Tris-HCl, 5 mM EDTA, pH 7.5, and lysed by sonication. The cell lysates were centrifuged at 1000 rpm for 5 min at 4° C., and the supernatant was centrifuged at 30,000×g for 20 min at 4° C. The pellet was suspended in 50 mM Tris-HCl, 1 mM MgCl2, and 0.1% ascorbic acid at pH 7.5. Binding of the α1 antagonist [^3H]prazosin (0.5 nM, specific activity 76.2 Ci/mmol) to membrane preparations of LM(tk−) cells was done in a final volume of 0.25 ml and incubated at 37° C. for 20 min. Nonspecific binding was determined in the presence of 10 μM phentolamine. The reaction was stopped by filtration through GF/B filters using a cell harvester. Inhibition experiments, routinely consisting of 7 concentrations of the tested compounds, were analyzed using a non-linear regression curve-fitting computer program to obtain Ki values.

| Structure (SMILES) | Ki (human α2a receptor) | Ki (human α1d receptor) |
| --- | --- | --- |
| O=C1OCC2=C1C(c1ccc(F)c(F)c1)N(C(=O)NCCCN1CCC(c3ccccn3)CC1)C(=O)N2 (single isomer, unassigned; (+)) [Compound 8, (+)-1-3-{[4-(3,4-Difluorophenyl)-2,5-dioxo-1,2,5,7-tetrahydro-4H-furo[3,4-d]-pyrimidine-3-carbonyl]amino}-propyl-4-(2-pyridyl)-piperidine] | 1.5 µM | 1.97 µM |
| COCC1=C(C(=O)OC)[C@H](c2ccc(F)c(F)c2)N(C(=O)NCCCO)C(=O)N1 [Compound 1, (+)-1,2,3,6-Tetrahydro-1-(3-hydroxypropyl)carboxamido-5-methoxycarbonyl-4-methoxymethyl-6-(3,4-difluorophenyl)-2-oxo-pyrimidine] | 40 µM | > 50 µM |
| COCC1=C(C(=O)OC)[C@H](c2ccc(F)c(F)c2)N(C(=O)NCCCN2CCC(c3cccc[n+]3[O-])CC2)C(=O)N1 [Compound 2, (+)-1,2,3,6-Tetrahydro-1-{N-[4-(2-pyridyl)piperidin-1-yl]propyl}carboxamido-5-methoxycarbonyl-4-methoxymethyl-6-(3,4-difluorophenyl)-2-oxopyrimidine-pyridine-N-oxide hydrochloride] | 4.2 µM | 3.7 µM |
| COCC1=C(C(=O)OC)[C@H](c2ccc(F)c(F)c2)N(C(=O)NCCC[n+]2ccc(-c3ccccn3)cc2)C(=O)N1 [Compound 3, 4-(2-Pyridyl)-1-{3-[5-carboxymethyl-4-methoxymethyl-2-oxo-6(S)-(3,4-difluorphenyl)-1,2,3,6-tetrahydropyrimidin-1-yl]carboxyaminopropyl}pyridinium chloride] | 5.62 µM | > 5 µM |
| COC(=O)C1=C(CO)NC(=O)N(C(=O)NCCCN2CCC(c3ccccn3)CC2)[C@H]1c1ccc(F)c(F)c1 [Compound 7, (+)-1,2,3,6-Tetrahydro-1-{N-[4-(2-pyridyl)piperidin-1-yl]propyl}carboxamido-5-methoxycarbonyl-4-hydroxymethyl-6-(3,4-difluorophenyl)-2-oxopyrimidine] | 0.38 µM | 1.2 µM |
| O=C(O)CCNC(=O)N1C(=O)NC2=C(C(=O)OC2)[C@@H]1c1ccc(F)c(F)c1 [Compound 9] | > 50 µM | > 5 µM |
